Results on 21 substances are retold here after patent publication US20190315823A1, “SMALL CATIONIC ANTI-BIOFILM AND IDR PEPTIDES” (priority 2013, published 2019).

Ends that are not written are not given here.

For experiment [1], the system named is LPS-stimulated human peripheral blood mononuclear cells (IL1-β). The format is cell-based. The note with it: Table 12, cells stimulated with 10 ng/ml LPS; for IL1β Production: LPS alone 1313 (HH2 derivatives), 1927 (1018 derivatives), 2455 (1002 and hybrid peptides) pg/ml. As for the experimental part: LPS from P. aeruginosa strain H103 was highly purified free of proteins and lipids using the Darveau-Hancock method. Briefly, P. aeruginosa was grown overnight in LB broth at 37° C. Cells were collected and washed and the isolated LPS pellets were extracted with a 2:1 chloroform:methanol solution to remove contaminating lipids. Purified LPS samples were quantitated using an assay for the specific sugar 2-keto-3-deoxyoctosonic acid (KDO assay) and then resuspended in endotoxin-free water (Sigma-Aldrich).

The subject of experiment [2] is methicillin resistant Staphylococcus aureus (MRSA) biofilm. The note with it: approximate peptide concentration […] (around 3 μg/ml); compared to untreated samples. As for the experimental part:
Methods of assessment of anti-biofilm activity—Biofilm formation was initially analyzed using a static abiotic solid surface assay as described elsewhere (de la Fuente-Nunez et al., 2012). Dilutions (1/100) of overnight cultures were incubated in BM2 biofilm-adjusted medium [62 mM potassium phosphate buffer (pH 7), 7 mM (NH4)2SO4, 2 mM MgSO4, 10 μM FeSO4, 0.4% (wt/vol) glucose, 0.5% (wt/vol) Casamino Acids], or a nutrient medium such as Luria Broth, in polypropylene microtiter plates (Falcon, United States) in the absence (control) or presence of peptide. Peptide was added at time zero (prior to adding the diluted, overnight cultures) in varying concentrations, and the decrease in biofilm formation was recorded at 22-46 h for most bacteria. Planktonic cells were removed, biofilm cells adhering to the side of the tubes were stained with crystal violet, and absorbance at 595 nm was measured using a microtiter plate reader (Bio-Tek Instruments Inc., United States). Some peptides were screened against two Gram negative organisms, P. aeruginosa and K. pneumoniae using a Bioflux apparatus (AutoMate Scientific, Berkeley, Calif.; http://www.autom8.com/bioflux_biofilm.html), which allows for the high-throughput, real-time analysis of biofilms.

The test system of experiment [3] is human peripheral blood mononuclear cells (MCP-1). As to the kind of experiment: SPOT-synthesized derivative screen: production of chemokine MCP-1. The format is cell-based. The note with it: Table 12, No LPS, human PBMC, peptide at ~18-24 μM; for MCP1: background subtracted 139 (HH2 derivatives), 170 (1018 derivatives), 242 (1002 and hybrid peptides) pg/ml. As for the experimental part: Venous blood (20 ml) from healthy volunteers was collected in Vacutainer® collection tubes containing sodium heparin as an anticoagulant (Becton Dickinson, Mississauga, ON) in accordance with UBC ethical approval and guidelines. Blood was diluted 1:1 with complete RPMI 1640 medium and separated by centrifugation over a Ficoll-Paque® Plus (Amersham Biosciences, Piscataway, N.J., USA) density gradient. White blood cells were isolated from the buffy coat, washed twice in RPMI 1640 complete medium, and the number of peripheral blood mononuclear cells (PBMC) was determined by Trypan blue exclusion. PBMC (5×10^5) were seeded into 12-well tissue culture dishes (Falcon; Becton Dickinson) at 0.75 to 1×10^6 cells/ml at 37° C. in 5% CO2. The above conditions were chosen to mimic conditions for circulating blood monocytes entering tissues at the site of infection via extravasation.
Following incubation of the cells under various treatment regimens, the tissue culture supernatants were centrifuged at 1000×g for 5 min, then at 10,000×g for 2 min to obtain cell-free samples. Supernatants were aliquoted and then stored at −20° C. prior to assay for various chemokines by capture ELISA (eBioscience and BioSource International Inc., CA, USA respectively)

As for “1002-G7: single substituted 1002 peptide (VQRWLIGWRIRK-NH2) [Peptide 1002-G7]”, in experiment [1], the “Fold change in IL1β relative to no peptide LPS stimulated cells” value stood at 0.14 and the “IL1β Production” value was 353 pg/mL. Besides, in experiment [2], the “% Biofilm inhibition” value worked out at 54%. In addition, in experiment [3], the “Fold increase in MCP1 cf. untreated cells” value (“Fold increase” below) was found to be 0.9 and the “MCP1” value is -36.2 pg/mL.
As to “1018-W6: single substituted 1018 peptide (VRLIVWVRIWRR-NH2) [Peptide 1018-W6]”, in experiment [1], the “Fold change in IL1β relative to no peptide LPS stimulated cells” value is 0.24 and the “IL1β Production” value turned out to be 310 pg/mL. In experiment [2], the “% Biofilm inhibition” value was determined as 75%. In addition, in experiment [3], the “Fold increase” value turned out to be 0.7 and the “MCP1” value is -54 pg/mL.
On the same counts, the results for “1018-I2: single substituted 1018 peptide (VILIVAVRIWRR-NH2) [Peptide 1018-I2]” are 0.42, 557 pg/mL, 61%, 44 and 7342 pg/mL.
“1002-L6: single substituted 1002 peptide (VQRWLLVWRIRK-NH2) [Peptide 1002-L6]”: in experiment [1], the “Fold change in IL1β relative to no peptide LPS stimulated cells” value was 0.05 and the “IL1β Production” value came out at 127 pg/mL. The “% Biofilm inhibition” value in experiment [2] worked out at 52%. Also, in experiment [3], the “Fold increase” value was 1.3 and the “MCP1” value was determined as 68.0 pg/mL.
As for “HH2-W2: single substituted HH2 peptide (VWLRIRVAVIRA-NH2)”, in experiment [1], the “Fold change in IL1β relative to no peptide LPS stimulated cells” value is recorded as 0.98 and the “IL1β Production” value worked out at 1293 pg/mL. Also, in experiment [2], the “% Biofilm inhibition” value is 70%. Besides, in experiment [3], the “Fold increase” value turned out to be 12 and the “MCP1” value worked out at 1802 pg/mL.
As for “1002-G9: single substituted 1002 peptide (VQRWLIVWGIRK-NH2) [Peptide 1002-G9]”, in experiment [1], the “Fold change in IL1β relative to no peptide LPS stimulated cells” value was 0.05 and the “IL1β Production” value worked out at 127 pg/mL. Moreover, in experiment [2], the “% Biofilm inhibition” value is reported as 44%. Besides, in experiment [3], the “Fold increase” value came to 2.8 and the “MCP1” value is 444.4 pg/mL.
With “1018-A5: single substituted 1018 peptide (VRLIAAVRIWRR-NH2) [Peptide 1018-A5]”, in experiment [1], the “Fold change in IL1β relative to no peptide LPS stimulated cells” value is 0.57 and the “IL1β Production” value amounted to 752 pg/mL. Further, in experiment [2], the “% Biofilm inhibition” value was 54%. In experiment [3], the “Fold increase” value is on record as 1.3 and the “MCP1” value is 57 pg/mL.
For the substance “HH2-W12: single substituted HH2 peptide (VQLRIRVAVIRW-NH2)”, in experiment [1], the “Fold change in IL1β relative to no peptide LPS stimulated cells” value is listed as 0.32 and the “IL1β Production” value came out at 420 pg/mL. Also, in experiment [2], the “% Biofilm inhibition” value came out at 58%. In addition, in experiment [3], the “Fold increase” value is 44 and the “MCP1” value is 7325 pg/mL.
“HH2-L6: single substituted HH2 peptide (VQLRILVAVIRA-NH2)”: in experiment [1], the “Fold change in IL1β relative to no peptide LPS stimulated cells” value worked out at 0.69 and the “IL1β Production” value came to 901 pg/mL. Besides, the “% Biofilm inhibition” value in experiment [2] amounted to 18%. In experiment [3], the “Fold increase” value was 1.8 and the “MCP1” value came to 138 pg/mL.
For “1018-G9: single substituted 1018 peptide (VRLIVAVRGWRR-NH2) [Peptide 1018-G9]”, in experiment [1], the “Fold change in IL1β relative to no peptide LPS stimulated cells” value was 1.13 and the “IL1β Production” value was 1481 pg/mL. The “% Biofilm inhibition” value in experiment [2] was 67%. Besides, in experiment [3], the “Fold increase” value is reported as 0.9 and the “MCP1” value is -17 pg/mL.
For “HH2-G5: single substituted HH2 peptide (VQLRGRVAVIRA-NH2)”, in that order: 1.27, 1672 pg/mL, 34%, 2.9 and 321 pg/mL.
“1018-G8: single substituted 1018 peptide (VRLIVAVGIWRR-NH2) [Peptide 1018-G8]”: in experiment [1], the “Fold change in IL1β relative to no peptide LPS stimulated cells” value worked out at 0.10 and the “IL1β Production” value was 127 pg/mL. The “% Biofilm inhibition” value in experiment [2] came out at 54%. For the same substance, in experiment [3], the “Fold increase” value came to 1.3 and the “MCP1” value is 57 pg/mL.
For “HH2-I3: single substituted HH2 peptide (VQIRIRVAVIRA-NH2)”, in that order: 1.02, 1336 pg/mL, 62%, 6.8 and 982 pg/mL.
In the case of “1002-A2: single substituted 1002 peptide (VARWLIVWRIRK-NH2) [Peptide 1002-A2]”, in experiment [1], the “Fold change in IL1β relative to no peptide LPS stimulated cells” value worked out at 0.05 and the “IL1β Production” value is 127 pg/mL. Besides, the “% Biofilm inhibition” value in experiment [2] amounted to 68%. Also, in experiment [3], the “Fold increase” value is recorded as 2.0 and the “MCP1” value amounted to 245.4 pg/mL.
Consider “1002-W11: single substituted 1002 peptide (VQRWLIVWRIWK-NH2) [Peptide 1002-W11]”, for which, in experiment [1], the “Fold change in IL1β relative to no peptide LPS stimulated cells” value stood at 0.05 and the “IL1β Production” value was found to be 127 pg/mL. In experiment [2], the “% Biofilm inhibition” value was determined as 37%. Besides, in experiment [3], the “Fold increase” value is recorded as 0.9 and the “MCP1” value is -36.2 pg/mL.
In the case of “HH2-L4: single substituted HH2 peptide (VQLLIRVAVIRA-NH2)”, in experiment [1], the “Fold change in IL1β relative to no peptide LPS stimulated cells” value is given as 0.61 and the “IL1β Production” value turned out to be 800 pg/mL. For the same substance, in experiment [2], the “% Biofilm inhibition” value was determined as 54%. Also, in experiment [3], the “Fold increase” value is reported as 18 and the “MCP1” value came to 2884 pg/mL.
Turning to “1018-W1: single substituted 1018 peptide (WRLIVAVRIWRR-NH2) [Peptide 1018-W1]”, in experiment [1], the “Fold change in IL1β relative to no peptide LPS stimulated cells” value is on record as 0.16 and the “IL1β Production” value worked out at 204 pg/mL. Moreover, the “% Biofilm inhibition” value in experiment [2] came to 68%. Further, in experiment [3], the “Fold increase” value turned out to be 5.0 and the “MCP1” value stood at 684 pg/mL.
As for “1002-R4: single substituted 1002 peptide (VQRRLIVWRIRK-NH2) [Peptide 1002-R4]”, in experiment [1], the “Fold change in IL1β relative to no peptide LPS stimulated cells” value was 0.34 and the “IL1β Production” value came out at 834 pg/mL. In experiment [2], the “% Biofilm inhibition” value is 36%. Moreover, in experiment [3], the “Fold increase” value is reported as 0.9 and the “MCP1” value was -36.2 pg/mL.
Take “HH2-L9: single substituted HH2 peptide (VQLRIRVALIRA-NH2)”: in experiment [1], the “Fold change in IL1β relative to no peptide LPS stimulated cells” value is listed as 1.04 and the “IL1β Production” value is 1359 pg/mL. Further, in experiment [2], the “% Biofilm inhibition” value worked out at 65%. In experiment [3], the “Fold increase” value is reported as 10 and the “MCP1” value is 1527 pg/mL.
Take “HH2-V3: single substituted HH2 peptide (VQVRIRVAVIRA-NH2)”: in experiment [1], the “Fold change in IL1β relative to no peptide LPS stimulated cells” value came out at 1.27 and the “IL1β Production” value is 1665 pg/mL. In addition, in experiment [2], the “% Biofilm inhibition” value amounted to 57%. In experiment [3], the “Fold increase” value is 211 and the “MCP1” value was 35750 pg/mL.
“HH2-I4: single substituted HH2 peptide (VQLIIRVAVIRA-NH2)”: in experiment [1], the “Fold change in IL1β relative to no peptide LPS stimulated cells” value is 0.58 and the “IL1β Production” value is 760 pg/mL. Besides, the “% Biofilm inhibition” value in experiment [2] turned out to be 47%. In experiment [3], the “Fold increase” value stood at 11 and the “MCP1” value worked out at 1669 pg/mL.
